Reference: patent US20050271755A1, “Phytomedicinal compositions for the control of lipid accumulation and metabolism in mammals” (priority 2004, published 2005)

Assays:
[1] = cited from earlier work
Human pancreatic lipase = target: T1, Human pancreatic lipase (Homo sapiens, UniProt P16233); assay: Pancreatic Lipase (PL) inhibitory test (Lipase-PS kit); format: biochemical; settings: FIG. 3 / FIG. 14
T1 construct: purchased Sigma-Aldrich
T1 sequence (P16233 17-465): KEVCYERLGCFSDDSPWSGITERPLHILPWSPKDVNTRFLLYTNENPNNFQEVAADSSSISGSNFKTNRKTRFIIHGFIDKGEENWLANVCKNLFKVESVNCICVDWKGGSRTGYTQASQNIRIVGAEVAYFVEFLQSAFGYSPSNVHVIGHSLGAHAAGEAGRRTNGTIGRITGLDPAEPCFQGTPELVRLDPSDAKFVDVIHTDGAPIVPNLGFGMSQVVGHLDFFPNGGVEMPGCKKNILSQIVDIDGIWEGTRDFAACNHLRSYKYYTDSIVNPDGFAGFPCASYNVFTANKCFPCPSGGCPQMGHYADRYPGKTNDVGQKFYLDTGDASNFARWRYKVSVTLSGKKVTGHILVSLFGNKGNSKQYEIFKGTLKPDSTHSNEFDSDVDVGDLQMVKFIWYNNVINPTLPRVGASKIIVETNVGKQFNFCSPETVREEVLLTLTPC
T1 sequence (P04118 23-112 partner): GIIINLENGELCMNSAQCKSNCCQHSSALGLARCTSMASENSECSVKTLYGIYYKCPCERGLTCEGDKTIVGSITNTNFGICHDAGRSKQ
Protocol: A Pancreatic Lipase (PL) inhibitory test was performed with a commercial kit (Lipase-PSTM Trinity Biotech USA, Jamestown, N.Y.). Lipase-PSTM reagents were obtained from Trinity Biotech USA (Lipase-PSTM was manufactured by Sigma Diagnostics (Procedure No. 805, Sigma-Aldrich, St. Louis, Mo. until 2003)). […] Louis, Mo.). […] Activator reagent (300 μL) was added and mixed by gentle inversion and the samples were incubated again for 3 min. at 37° C. The recorded rate of increase in absorbance at 550 nm due to the formation of quinone diimine dye was used to determine the pancreatic lipase activity in the samples prepared, as detailed in the literature. Lott, J. A., et al., Lipase Isoforms and Amylase Isoenzymes: Assays and Application in the Diagnosis of Acute Pancreatitis, Clinical Chemistry, 37, 361 (1991); Moreno […]., Fried […]., 2003, Inhibitory effects of grape seed extract on lipases, Nutrition 19, 876-879 (hereinafter “Moreno et al. 2003”).

inhibitory effect on in vitro pancreatic lipase (in words) (Human pancreatic lipase) | SMILES | diarrhea (in words) ([1]; literature) | inhibition of dietary fat absorption ([1]; recommended therapeutic dose of 120 mg three times a day) | inhibitory effect on in vitro pancreatic lipase (in words) (Human pancreatic lipase; listed as Esculetin)
– | CCCCCCCCCCC[C@@H](C[C@@H]1OC(=O)[C@H]1CCCCCC)OC(=O)[C@H](CC(C)C)NC=O [Orlistat] | common side effect | about 30% | –
particularly strong inhibitory effect | O=c1ccc2cc(O)c(O)cc2o1 [esculetin, 6,7-dihydroxycoumarin] | – | – | strong inhibitory effect on PL in a dose dependent manner
